Tests used:
Format in all cases: cell-based, human
SH-SY5Y cells [1] = test: Western blots of 3-Ntyr, mTOR pathway components and Syp in SH-SY5Y cell lysate; conditions: western blot normalized for β-actin, 100 μM 7-NI or 20 nM siRNA
Protocol: In FIGS. 4A-4D, for quantitative analysis data, all individual data series are presented as biological replicates (n=4) for all groups. Data were normalized for β-actin and are presented as mean±SEM. Statistical significance was determined using a One-way ANOVA followed by Fisher's LSD multiple comparison post hoc test. *P<0.05 and **P<0.01.
FIG. 4A: Representative western blots of 3-Ntyr prepared from cell lysate of SH-SY5Y cells following administration of the control (“SH-SY5Y”—Series 1), 100 μM 7-NI (“SH-SY5Y +7-NI”—Series 2), or 20 nM siRNA (SEQ ID NO: 4) (“SH-SY5Y+si-nNOS”—Series 3).
FIG. 4B: Quantitative analysis of 3-Ntyr levels for the experiments of FIG. 4A.
FIG. 4C: Representative western blots of mTOR, p-mTOR, TSC-2, AKT, pAKT, RPS6, pRPS6, and Syp prepared from the cell lysate of SH-SY5Y cells following administration of the control (“SH-SY5Y”—Series 1), 100 μM 7-NI (“SH-SY5Y+7-NI”—Series 2), or 20 nM siRNA (SEQ ID NO: 4) (“SH-SY5Y+si-nNOS”—Series 3).
FIG. 4D: Quantitative analysis of mTOR, p-mTOR, TSC-2, AKT, pAKT, RPS6, pRPS6, and Syp levels for the experiments of FIG. 4C.

SH-SY5Y cells [2] = test: NADPH-diaphorase activity assay (NOS activity) in SH-SY5Y cell lysates; conditions: 100 μM 7-NI, 24 hr
Protocol: (§1) Human neuroblastoma (“NB”) SH-SY5Y cells were obtained from the American Type Culture Collection (ATCC) and maintained in Dulbecco's modified Eagle's medium (DMEM) and Ham's F-12 (1:1) supplemented with 10% fetal bovine serum, 2 mM L-glutamine, and 100 U/ml penicillin-G/[…] streptomycin in the humidified atmosphere (37° C., 5% CO2). Cells were plated onto 25 cm^2 and 75 cm^2 at a density of […] respectively for Western blotting (WB) and 1×10^5 for immunofluorescence. The SH-SY5Y cells were treated with 100 μM 7-nitroindazole (7-NI) for 24 hr. This concentration was confirmed in the dose-response experiment (FIG. 1) using an MTT viability assay.
The NADPH-diaphorase activity assay was used to determine the NOS activity based on the NADPH-dependent reduction of nitro-blue tetrazolium salt (NBT) to visible formazan. SH-SYSY cells grown in six-well culture plates were lysed in 50 mM Tris-HCl buffer (pH 7.4), containing 0.1% Triton X-100, 2 mM EDTA, and a protease inhibitor cocktail (Sigma, St. Louis, MO). […] After a 15 min incubation period at 37° C., the production of formazan was measured spectrophotometrically at 585 nm. The data were expressed as absorbance units and normalized for the protein content of each sample. Protein concentration was measured by the bicinchoninic acid (BCA) protein assay using BSA as a standard. […]

SH-SY5Y cells [3] = test: Western blot of SH-SY5Y cells (3-Ntyr, mTOR pathway proteins, synaptophysin); conditions: 100 μM 7-NI, 24 hr
Protocol: as §1
Cells were lysed in ice-cold RIPA buffer containing 50 mM Tris-HCl, 1% Nonidet P-40, 0.25% sodium deoxycholate, 150 mM NaCl, protease-, and phosphatase inhibitor cocktails, pH 7.4. After sonication, the lysates were centrifuged at 17,000 g for 30 min at 4° C., and the supernatant was collected. The protein concentrations were determined with the BCA protein assay. Proteins were resolved by SDS-PAGE, transferred to a PVDF membrane, and probed with the following antibodies: anti-pMTOR (rabbit, diluted 1:1000), anti-mTOR (rabbit, diluted 1:1000), anti-TSC2 (rabbit, diluted 1:1000), anti-nNOS (rabbit, diluted 1:1000), anti-pAKT (rabbit, diluted 1:1000), anti-AKT (rabbit, diluted 1: 1000), anti-pRPS6 (rabbit, diluted 1:1000), anti-RPS6 (mouse, diluted 1:1000), anti-synaptophysin (mouse, diluted 1:1000), anti-β-actin (rabbit, diluted 1:1000), anti-3-Nitrotyrosine (rabbit, diluted 1:5000) from Abcam. All primary antibodies, except anti-3-Nitrotyrosine, were purchased from Cell Signaling Technology. The blots were then visualized using an enhanced chemiluminescence (ECL) system.
SH-SY5Y cells were plated in 6 well plates, as well as on 22 mm^2 coverslips at a density of 6.0×10^4 cells/cm^2 and transfected with 20 nM nNOS siRNA (SEQ ID NO: 4) for 24 h, with the use of Lipofectamine RNAi MAX (56530, Invitrogen) according to the manufacturer's protocol. Then cells were washed with phosphate-buffered saline (PBS) and harvested for WB and fixed for immunofluorescence.

With `O=[N+]([O-])c1cccc2cn[nH]c12` [7-NI, 7-nitroindazole] as the compound, how does the “expression levels of 3-nitrotyrosine (3-Ntyr)” value (SH-SY5Y cells [1]) read?
Its value is “significant decrease”.

And the “expression levels of AKT” value (SH-SY5Y cells [1])?
The value was “significant decrease”.

What about the “expression levels of RPS6” value (SH-SY5Y cells [1]) of the same compound?
Its value is “significant decrease”.

What about the “expression levels of TSC-2” value (SH-SY5Y cells [1]) of the same compound?
Its value is “significant decrease”.

And the “expression levels of mTOR” value (SH-SY5Y cells [1])?
The value was “significant decrease”.

And the “expression levels of p-mTOR” value (SH-SY5Y cells [1])?
Its value is “significant decrease”.

And the “expression levels of pAKT” value (SH-SY5Y cells [1])?
The value was “significant decrease”.

And the “expression levels of pRPS6” value (SH-SY5Y cells [1])?
Its value is “significant decrease”.

And the “expression levels of synaptophysin (Syp)” value (SH-SY5Y cells [1])?
The value was “significant decrease”.

And the “NADPH diaphorase activity (NOS activity)” value (SH-SY5Y cells [2])?
The value was “significantly inhibited”.

And the 3-Ntyr levels (SH-SY5Y cells [3])?
The 3-Ntyr levels was “halved”.

What about the “levels of TSC-2” value (SH-SY5Y cells [3]) of the same compound?
The value was “significant increase”.

And the levels of synaptophysin (SH-SY5Y cells [3])?
Its levels of synaptophysin is “significantly decreased”.

What about the “phosphorylation of RPS6” value (SH-SY5Y cells [3]) of the same compound?
Its value is “reduced”.

What about the “phosphorylation of mTOR” value (SH-SY5Y cells [3]) of the same compound?
Its value is “decrease”.

What about the “phosphorylation of protein kinase-B (AKT)” value (SH-SY5Y cells [3]) of the same compound?
The value was “reduced”.
